# Experimental data reported in PMC11938010, “Positive Charge in an Antimalarial Compound Unlocks Broad-Spectrum Antibacterial Activity” (JACS Au, 2025).
# Read-outs that look alike come from different tables or passages of the source.
# Assays:
# [1] = system: Plasmodium falciparum NF54; assay: P. falciparum in vitro drug sensitivity assay on asexual blood stage parasites ([3H]-hypoxanthine incorporation); format: cell-based; conditions: for IC50: read-out: PfNF54 IC50
# [2] = in vitro; conditions: human
# [3] = system: Staphylococcus aureus ssp. Aureus; assay: In vitro antibacterial activity (MIC), S. aureus; format: cell-based; conditions: Staphylococcus aureus, read-out: Sa MIC95
# [4] = system: Escherichia coli ∆tolC; assay: microbe, parasite or virus in culture; format: cell-based; conditions: for MIC / inhibition at 50 µM: Escherichia coli; for inhibition at 50 µM: read-out: Ec∆tolC inh. at 50 µM (%)
# [5] = system: Mycobacterium tuberculosis (Mtb) strain H37Rv; assay: microbe, parasite or virus in culture; format: cell-based; conditions: 168 h, 7 days, footnote b: not active at maximum solubility, read-out: MtbH37Rv MIC90
# [6] = system: Acinetobacter baumannii; assay: In vitro antibacterial activity (growth inhibition, OD600), A. baumannii; format: cell-based
# [7] = system: E. coli K12; assay: In vitro antibacterial activity (growth inhibition, OD600), E. coli wild-type; format: cell-based; conditions: Escherichia coli
# [8] = system: Streptococcus pneumoniae (DSM20566); assay: In vitro antibacterial activity (MIC), S. pneumoniae; format: cell-based; conditions: Streptococcus pneumoniae, DSM20566, read-out: Sp MIC95
# [9] = system: Pseudomonas aeruginosa PA14; assay: In vitro antibacterial activity (growth inhibition, OD600), P. aeruginosa; format: cell-based
# [10] = Plasmodium falciparum, NF54, Table 1 and main text
# [11] = Table S2, with standard deviation
# [12] = 50 μM compound, Table 1 and main text, read-out: Ab inh. at 50 μM
# [13] = K12, 50 μM compound, Table 1 and main text, read-out: EcK12 inh. at 50 μM
# [14] = PA14, 50 μM compound, Table 1 and main text, read-out: PA14 inh. at 50 μM
# [15] = K12, 50 µM, Table S1, with standard deviation, read-out: EcK12 inh. at 50 µM (%)
# [16] = K12, read-out: EcK12 inh. at 50 μM, 50 μM compound, Table 1 and main text
# [17] = 50 µM, Table S1, with standard deviation, read-out: Ab inh. at 50 µM (%)
# [18] = PA14, 50 µM, Table S1, with standard deviation, read-out: PA14 inh. at 50 µM (%)
SMILES,"IC50 [1, 10]","CC50 ([2]; HepG2 CC50, 48 h, MTT)",MIC ([3]; Table 1 and main text),"MIC [3, 11]",MIC ([4]; read-out: EcΔtolC MIC95),MIC ([4]; read-out: Ec∆tolC MIC95 (µM)),MIC90 [5],MIC ([8]; Table 1 and main text),"MIC [8, 11]","inhibition at 50 µM [9, 14]",inhibition at 50 µM [4],"inhibition at 50 µM [7, 15]",further results
N=C(N)N1CCN(c2cccc(NC(=O)c3cc(-c4cc(Cl)ccc4O)[nH]n3)c2)CC1 [Compound 5G],930 nM,> 50 µM,23.1 µM,23.1 ± 0.5 µM,11 µM,11 ± 2 µM,64 µM,48 µM,48 ± 1 µM,31%,–,–,"inhibition at 50 µM [6, 12]: < 10%; inhibition at 50 µM [7, 13]: 32%"
CC(C)(C)OC(=O)N1CCN(c2cccc(NC(=O)c3cc(-c4cc(Cl)ccc4O)[nH]n3)c2)CC1 [Compound 5B],900 nM,> 50 µM,> 50 µM,> 50 µM,> 50 µM,–,–,> 50 µM,> 50 µM,–,19 ± 14%,< 10%,–
N=C(N)N1CCN(c2ccc(NC(=O)c3cc(-c4cc(Cl)ccc4O)[nH]n3)cc2)CC1 [Compound 6G],440 nM,> 50 µM,26 µM,26 ± 2 µM,9 µM,9 ± 3 µM,64 µM,25 µM,25 ± 2 µM,55%,–,–,"inhibition at 50 µM [6, 12]: 32%; inhibition at 50 µM [7, 16]: ≥ 45%"
CC(C)(C)OC(=O)N1CCN=C1NCc1ccc(NC(=O)c2cc(-c3cc(Cl)ccc3O)[nH]n2)cc1 [Compound 8D],–,> 50 µM,> 50 µM,> 50 µM,> 50 µM,–,> 64 µM,> 50 µM,> 50 µM,–,18.5 ± 0.8%,–,–
CC(C)(C)OC(=O)N1CCN(c2ccc(NC(=O)c3cc(-c4cc(Cl)ccc4O)[nH]n3)cc2)CC1 [Compound 6B],1610 nM,> 50 µM,> 50 µM,> 50 µM,> 50 µM,–,–,> 50 µM,> 50 µM,–,< 10%,–,–
"CC(C)(C)OC(=O)NCc1cc(NC(=O)c2cc(-c3cc(Cl)ccc3O)[nH]n2)cc(C(F)(F)F)c1 [Compound 9B, tert-Butyl (3-(5-(5-chloro-2-hydroxyphenyl)-1H-pyrazole-3-carboxamido)-5-(trifluoromethyl)benzyl)carbamate]",203 nM,5 µM,> 50 µM,> 50 µM,> 50 µM,–,> 64 µM,30 µM,30 ± 5 µM,–,48 ± 8%,–,–
"O=C(Nc1cc(CNC2=NCCN2)cc(C(F)(F)F)c1)c1cc(-c2cc(Cl)ccc2O)[nH]n1 [Compound 9C, 5-(5-Chloro-2-hydroxyphenyl)-N-(3-(((4,5-dihydro-1H-imidazol-2-yl)amino)methyl)-5-(trifluoromethyl)phenyl)-1H-pyrazole-3-carboxamide]",517 nM,> 50 µM,9 µM,9 ± 2 µM,7 µM,7 ± 1 µM,16 µM,15 µM,15 ± 4 µM,18%,–,84 ± 2%,"inhibition at 50 µM [6, 12]: 47%; inhibition at 50 µM [7, 16]: < 10%"
NCc1ccc(NC(=O)c2cc(-c3cc(Cl)ccc3O)[nH]n2)cc1C(F)(F)F [Compound 10A],150 nM,13 µM,29 µM,29 ± 3 µM,22.9 µM,22.9 ± 0.1 µM,64 µM,23 µM,23 ± 3 µM,< 10%,–,–,"inhibition at 50 µM [6, 12]: 86%; inhibition at 50 µM [7, 13]: 61%"
Cc1ccc(NC(=O)c2cc(-c3cc(Cl)ccc3O)[nH]n2)cc1 [Compound 1d],> 2000 nM,> 50 µM,> 50 µM,> 50 µM,> 50 µM,–,–,> 50 µM,> 50 µM,–,< 10%,–,IC50 ([1]; Table 1 and main text): 2400 nM
CC(C)(C)OC(=O)NCc1cccc(NC(=O)c2cc(-c3cc(Cl)ccc3O)[nH]n2)c1 [Compound 7B],1100 nM,> 50 µM,> 50 µM,> 50 µM,> 50 µM,–,–,> 50 µM,> 50 µM,–,< 10%,< 10%,–
N=C(N)N1CCN(C(=O)c2cc(-c3cc(Cl)ccc3O)[nH]n2)CC1 [Compound 14G],> 5000 nM,> 50 µM,> 50 µM,> 50 µM,> 50 µM,–,> 64 µM,> 50 µM,> 50 µM,–,18 ± 9%,–,PfNF54 IC50 ([1]; Table 1 and main text): inactive
CC(C)(C)OC(=O)N1CCN=C1NCc1cc(NC(=O)c2cc(-c3cc(Cl)ccc3O)[nH]n2)cc(C(F)(F)F)c1 [Compound 9D],150 nM,14 µM,12 µM,12 ± 3 µM,24 µM,24 µM,16 µM,21 µM,21 ± 9 µM,21%,–,–,"EcΔtolC MIC95 ([4]; Table 1 and main text): 24.0 µM; inhibition at 50 µM [6, 17]: 81.6 ± 0.6%"
CC(C)(C)OC(=O)N1CCN(Cc2ccc(NC(=O)c3cc(-c4cc(Cl)ccc4O)[nH]n3)cc2)CC1 [Compound 4B],200 nM,7 µM,> 50 µM,> 50 µM,> 50 µM,–,–,> 50 µM,> 50 µM,–,–,17 ± 13%,"CC50 ([2]; HepG2 CC50 (µM), Table S2, with standard deviation): 7.4 ± 0.7 µM"
O=C(c1cc(-c2cc(Cl)ccc2O)[nH]n1)N1CCOCC1 [Compound 1e],> 5000 nM,> 50 µM,> 50 µM,> 50 µM,> 50 µM,–,> 16 µM,> 50 µM,> 50 µM,–,23 ± 3%,–,PfNF54 IC50 ([1]; Table 1 and main text): inactive
"O=C(c1cc(-c2cc(Cl)ccc2O)[nH]n1)N1CCNCC1 [Compound 14A, (5-(5-Chloro-2-hydroxyphenyl)-1H-pyrazol-3-yl)(piperazin-1-yl)methanone]",3300 nM,> 50 µM,> 50 µM,> 50 µM,> 50 µM,–,> 16 µM,> 50 µM,> 50 µM,–,18 ± 4%,–,PfNF54 IC50 ([1]; Table 1 and main text): inactive
"CC(C)(C)OC(=O)N1CCN(c2cc(NC(=O)c3cc(-c4cc(Cl)ccc4O)[nH]n3)ccc2C(F)(F)F)CC1 [Compound 13B, tert-Butyl 4-(5-(5-(5-chloro-2-hydroxyphenyl)-1H-pyrazole-3-carboxamido)-2-(trifluoromethyl)phenyl)piperazine-1-carboxylate]",342 nM,2.8 µM,> 50 µM,–,> 50 µM,–,–,> 50 µM,–,–,< 10%,–,–
CC(C)(C)OC(=O)N1CCN(Cc2cccc(NC(=O)c3cc(-c4cc(Cl)ccc4O)[nH]n3)c2)CC1 [Compound 3B],1000 nM,25 µM,> 50 µM,> 50 µM,> 50 µM,–,–,> 50 µM,> 50 µM,–,–,< 10%,–
"O=C(Nc1ccc(C(F)(F)F)c(N2CCNCC2)c1)c1cc(-c2cc(Cl)ccc2O)[nH]n1 [Compound 13A, 5-(5-Chloro-2-hydroxyphenyl)-N-(3-(piperazin-1-yl)-4-(trifluoromethyl)phenyl)-1H-pyrazole-3-carboxamide]",160 nM,8 µM,> 50 µM,> 50 µM,> 50 µM,–,32 µM,29 µM,29 ± 2 µM,–,46 ± 5%,–,"inhibition at 50 µM [6, 17]: < 10%; inhibition at 50 µM [9, 18]: < 10%"
"CC(C)(C)OC(=O)NCc1ccc(NC(=O)c2cc(-c3cc(Cl)ccc3O)[nH]n2)cc1C(F)(F)F [Compound 10B, tert-Butyl (4-(5-(5-chloro-2-hydroxyphenyl)-1H-pyrazole-3-carboxamido)-2-(trifluoromethyl)benzyl)carbamate]",190 nM,> 50 µM,> 50 µM,> 50 µM,> 50 µM,–,–,> 50 µM,> 50 µM,–,< 10%,< 10%,"inhibition at 50 µM [6, 17]: < 10%"
CC(C)(C)OC(=O)N1CCN=C1NCc1cccc(NC(=O)c2cc(-c3cc(Cl)ccc3O)[nH]n2)c1 [Compound 7D],360 nM,19 µM,24 µM,24 µM,14 µM,14 ± 4 µM,64 µM,31 µM,31 ± 11 µM,≥ 45%,–,–,"inhibition at 50 µM [7, 16]: ≥ 45%; inhibition at 50 µM [9, 18]: 54.8 ± 0.8%"
